Read-outs that look alike come from different tables or passages of the source.
Experiments:
KCNQ2/3 channels = molecular target: T1, KCNQ2/3 channels (Homo sapiens, UniProt O43525+O43526); test: KCNQ2/3 currents, voltage clamp of CHO cells transiently expressing heterologous KCNQ2/3 channels; type: cell-based
T1 construct: expressed in transfected cells; host or cells: CHO cells, transient expression
Description: Retigabine and SF0034 at KCNQ2/3 channels. […] CHO cells transiently expressing heterologous KCNQ2/3 channels were clamped at −85 mV and KCNQ2/3 currents were measured elicited by 1 s depolarization step from −105 to +15 mV in the increment of 10 mV followed by return step to −70 mV. […] Representative current traces of KCNQ2/3 currents at increasing membrane potentials in absence and presence of 100 nM retigabine (A) and 100 nM SF0034 (C). B, D. Representative curves of normalized G-V (conductance-voltage) relationship of KCNQ2/3 currents at control and at increasing concentration of retigabine (B) and SF0034 (D). E. Summary bar graph representing half activation (V1/2) of KCNQ2/3 currents calculated from normalized G-V Boltzmann curves at control and at increasing concentration of retigabine and SF0034. […] Curves were fitted with a hill equation and EC50 values were calculated. Error bars represent mean±SEM. **p<0.01, ***p<0.001.
CHO cells transiently expressing heterologous KCNQ2/3 channels were clamped at −85 mV and KCNQ2/3 currents were measured elicited by 1 s depolarization step from −105 to +15 mV in the increment of 10 mV followed by return step to −70 mV. […] Curves were fitted with a hill equation and EC50 values were calculated. Error bars represent mean±SEM. *p<0.05, **p<0.01.
CHO cells transiently expressing heterologous KCNQ2/3 and homomeric KCNQ4 and KCNQ5 channels were clamped at −85 mV and KCNQ currents were elicited by 1 s depolarization step from −105 to +15 mV in the increment of 10 mV followed by return step to −70 mV. […] Representative current traces of KCNQ2/3 currents at increasing membrane potentials in absence and presence of 100 nM or 1 μM RL648_81. […] Representative curves of normalized G-V relationship of KCNQ2/3 currents at control and at increasing concentration of RL648_81. […] Summary bar graph representing half activation (V1/2) of KCNQ2/3 currents calculated from normalized G-V Boltzmann curves at control and at increasing concentration of RL648_81 A4. […] Curves were fitted with a hill equation and EC50 values were calculated. […] D. Summary bar graphs representing EC50 values of second generation compounds tested at KCNQ2/3 channels in comparison with SF0034.

KCNQ5 channels = molecular target: T2, KCNQ5 channels (Homo sapiens, UniProt Q9NR82); test: KCNQ5 currents, voltage clamp of CHO cells transiently expressing homomeric KCNQ5 channels; type: cell-based; conditions: 100 nM and 1 μM
T2 construct: expressed in transfected cells; host or cells: CHO cells, transient expression
Description: (§1) FIG. 7. […] CHO cells transiently expressing homomeric KCNQ4 or KCNQ5 channels were clamped at −85 mV and KCNQ currents were measured elicited by 1 s depolarization step from −105 to +15 mV in the increment of 10 mV followed by return step to −70 mV. […] B1-2. […] C1-2. […] E1-2. […] F1-2. […] H1-2. […] I1-2.
(§2) FIG. 9. […] CHO cells transiently expressing heterologous KCNQ2/3 and homomeric KCNQ4 and KCNQ5 channels were clamped at −85 mV and KCNQ currents were elicited by 1 s depolarization step from −105 to +15 mV in the increment of 10 mV followed by return step to −70 mV. A1. […] A2. […] A3. […] Curves were fitted with a hill equation and EC50 values were calculated. B1.

KCNQ4 channels = molecular target: T3, KCNQ4 channels (Homo sapiens, UniProt P56696); test: KCNQ4 currents, voltage clamp of CHO cells transiently expressing homomeric KCNQ4 channels; type: cell-based; conditions: 100 nM and 1 μM
T3 construct: expressed in transfected cells; host or cells: CHO cells, transient expression
Description: as §1, §2

[1] = hydrochloride salt; cited from earlier work
[2] = CHO cells, 100 nM-30 μM, Hill fit, mean±SEM, read-out: EC50 of half activation shift (ΔV1/2) of KCNQ2/3 currents

T1 sequence (O43526 whole entry): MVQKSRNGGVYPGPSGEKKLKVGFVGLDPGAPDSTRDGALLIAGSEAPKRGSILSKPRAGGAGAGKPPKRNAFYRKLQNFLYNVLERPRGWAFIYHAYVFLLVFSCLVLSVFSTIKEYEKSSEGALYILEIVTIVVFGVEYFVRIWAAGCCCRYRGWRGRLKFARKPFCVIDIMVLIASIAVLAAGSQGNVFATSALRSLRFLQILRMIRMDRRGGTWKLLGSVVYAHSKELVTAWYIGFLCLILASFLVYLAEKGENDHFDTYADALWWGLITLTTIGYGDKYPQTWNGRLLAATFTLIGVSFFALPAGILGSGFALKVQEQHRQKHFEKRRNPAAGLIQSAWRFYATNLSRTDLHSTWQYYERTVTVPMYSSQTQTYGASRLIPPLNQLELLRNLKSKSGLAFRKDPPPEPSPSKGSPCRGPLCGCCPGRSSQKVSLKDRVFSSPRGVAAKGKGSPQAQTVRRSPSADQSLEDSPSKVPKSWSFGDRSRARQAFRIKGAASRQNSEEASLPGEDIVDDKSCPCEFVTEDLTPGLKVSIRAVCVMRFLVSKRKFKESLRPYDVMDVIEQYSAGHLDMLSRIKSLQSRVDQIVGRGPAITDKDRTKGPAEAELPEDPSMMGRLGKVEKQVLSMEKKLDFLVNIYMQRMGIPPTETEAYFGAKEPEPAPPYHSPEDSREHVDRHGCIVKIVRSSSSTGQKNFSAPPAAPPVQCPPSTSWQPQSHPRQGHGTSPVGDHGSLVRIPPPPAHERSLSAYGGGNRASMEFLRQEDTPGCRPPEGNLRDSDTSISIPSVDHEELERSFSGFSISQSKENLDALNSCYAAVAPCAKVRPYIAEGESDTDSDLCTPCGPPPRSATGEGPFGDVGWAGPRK
T1 sequence (O43525 whole entry): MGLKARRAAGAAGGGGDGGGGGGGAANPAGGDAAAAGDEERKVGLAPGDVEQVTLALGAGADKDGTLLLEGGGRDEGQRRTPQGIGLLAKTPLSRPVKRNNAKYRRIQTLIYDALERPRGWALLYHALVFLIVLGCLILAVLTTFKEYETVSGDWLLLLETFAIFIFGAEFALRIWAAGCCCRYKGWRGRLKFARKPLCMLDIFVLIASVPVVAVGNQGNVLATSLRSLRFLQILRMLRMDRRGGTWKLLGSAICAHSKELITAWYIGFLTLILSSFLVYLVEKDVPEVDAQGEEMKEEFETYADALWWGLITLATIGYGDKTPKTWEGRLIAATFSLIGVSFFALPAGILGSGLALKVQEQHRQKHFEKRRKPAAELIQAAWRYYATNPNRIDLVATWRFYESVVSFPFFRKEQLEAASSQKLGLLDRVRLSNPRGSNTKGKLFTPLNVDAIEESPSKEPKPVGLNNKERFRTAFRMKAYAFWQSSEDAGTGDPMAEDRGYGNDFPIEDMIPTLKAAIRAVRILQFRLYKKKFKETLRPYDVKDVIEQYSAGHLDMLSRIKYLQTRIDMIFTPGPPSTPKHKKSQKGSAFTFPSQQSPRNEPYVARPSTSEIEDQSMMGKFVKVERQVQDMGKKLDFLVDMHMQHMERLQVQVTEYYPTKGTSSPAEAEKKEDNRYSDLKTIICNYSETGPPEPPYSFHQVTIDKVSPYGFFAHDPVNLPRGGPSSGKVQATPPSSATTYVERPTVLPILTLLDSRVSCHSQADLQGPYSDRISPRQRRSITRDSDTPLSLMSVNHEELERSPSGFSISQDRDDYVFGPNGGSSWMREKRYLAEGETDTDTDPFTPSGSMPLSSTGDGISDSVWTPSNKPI

## Isopropyl (2-amino-3-fluoro-4-((4-fluorobenzyl)amino)phenyl)carbamate [RL648_86]
KCNQ2/3 channels; CHO cells
  potency in activating KCNQ2/3 channel currents relative to SF0034 (times more potent): 2 times

## CCOC(=O)Nc1ccc(NCc2ccc(F)cc2)c(F)c1N [SF0034, reference compound]
KCNQ2/3 channels; 100 nM
  shift of half activation (V1/2) of KCNQ2/3 currents from control: significantly shift the V1/2
KCNQ2/3 channels; CHO cells
  potency in activating KCNQ2/3 channel currents relative to retigabine (times more potent): five-times more potent than retigabine
KCNQ2/3 channels; [2]
  EC50: 600 ± 60 nM

## CCOC(=O)Nc1ccc(NCc2ccc(C(F)(F)F)cc2)cc1N
KCNQ2/3 channels
  EC50: 910 ± 80 nM

## CC(C)OC(=O)Nc1ccc(NCc2ccc(F)cc2)cc1N [NR561_62, N-(2-Amino-4-{[(4-fluorophenyl)methyl]amino}phenyl)(methylethoxy)carboxamide]
KCNQ2/3 channels; CHO cells
  potency in activating KCNQ2/3 channel currents relative to SF0034 (times lower potency): 2-3 times
KCNQ2/3 channels; [2]
  EC50: 1480 ± 180 nM

## CCOC(=O)Nc1ccc(NCc2ccc(C(F)(F)F)cc2)c(F)c1N [RL648_81, Ethyl (2-amino-3-fluoro-4-((4-(trifluoromethyl)benzyl)amino)phenyl)carbamate]
KCNQ2/3 channels; CHO cells
  potency in activating KCNQ2/3 channel currents relative to SF0034 (times more potent): three times more potent than SF0034
KCNQ2/3 channels; [2]
  EC50: 190 ± 20 nM
KCNQ5 channels
  activation of KCNQ5 channel currents: does not potentiate KCNQ4 and KCNQ5 channel currents significantly
KCNQ4 channels
  activation of KCNQ4 channel currents: does not potentiate KCNQ4 and KCNQ5 channel currents significantly

## CCOC(=O)Nc1ccc(NCc2cccc(C(F)(F)F)c2)c(F)c1N [RL648_73, Ethyl (2-amino-3-fluoro-4-((3-(trifluoromethyl)benzyl)amino)phenyl)carbamate]
KCNQ2/3 channels; CHO cells
  potency in activating KCNQ2/3 channel currents relative to SF0034 (times more potent): 2 times

## CCOC(=O)Nc1ccc(NCc2ccc(F)cc2)cc1N [retigabine, reference compound]
KCNQ2/3 channels
  EC50: 3300 ± 800 nM
[1]
  solubility in aqueous solution: only sparingly soluble

## CCOC(=O)Nc1ccc(NCc2cccc(C(F)(F)F)c2)cc1N [NR561_50, N-[2-Amino-4-({[3-(trifluoromethyl)phenyl]methyl}amino)phenyl]ethoxycarboxamide]
KCNQ2/3 channels; [2]
  EC50: 740 ± 70 nM
KCNQ5 channels
  activation of KCNQ5 channel currents: does not activate KCNQ4 and KCNQ5 channel currents significantly
KCNQ4 channels
  activation of KCNQ4 channel currents: does not activate KCNQ4 and KCNQ5 channel currents significantly

From US10526280B2 (University of Pittsburgh—Of the Commonwealth System of …, priority 2014, dated 2020)
